Values quoted from earlier work in article PMC9796293 (British Journal of Clinical Pharmacology, 2022).

Test system: monocytes

monocytopaenia (clinical ref 20): not observed
Compound: O=C(CCCCCCC(=O)Nc1ccc(CN[C@H](C(=O)OC2CCCC2)c2ccccc2)cc1)NO [tefinostat]
lowest dose that induced monocyte histone acetylation (Phase I study in cancer patients ref 20): 40 mg
